Laboratory results: patent US5808137A, “Chalcones and esters thereof with antiproliferative activity in uterus, ovary and breast tumors” (Indena S.p.A., priority 1994, dated 1998)
Read-outs that look alike come from different tables or passages of the source.

Assays:
[1] = test system: estrogen receptors of type II; experiment: Binding affinity to estrogen receptors of type II (displacement of labelled estradiol in tumour cells); settings: for IC50: read-out: IC50 *** Concentration giving a 50% displacement of labelled estradiol (40 nM) from the receptor, labelled estradiol 40 nM; for affinity to estrogen receptors of type II: result in words
Procedure: (§1) The evaluation of the estrogen receptor binding has been carried out on tumour cells of ovary and other organs. Cells were growth in a monolayer culture on the minimum essential medium added with calf serum and with 200 units/ml of penicillin to maintain the medium sterile. In order to make the tests reproducible, the cells were trypsinated every week and placed on plates at a density of […] and incubated at 37° C. under air atmosphere containing 5% CO2 and humidity. […] After 24 hours the substrate was replaced with fresh substrate and the chalcones dissolved in absolute ethanol were added. […] The treatment described above was repeated at 24 hours time intervals during the 72 hours time of the test. […] At the end of the incubation time, the cells were quickly washed with fresh substrate and incubated for 30 minutes with 1M NaOH. The radioactivity was measured by means of a scintiller and the binding specificity was calculated as the difference between the preparations containing or not diethylstilbestrol. The results are expressed as the number of binding sites per cell, according to conventional methods. The inhibition on the cell proliferation is evaluated by direct count of the cells comparing the growth of the controls versus that of the treated.

OVCA 433 cancer cells = experiment: Antiproliferative activity on OVCA 433 cancer cells in vitro (direct cell count); type: cell-based; settings: read-out: IC50 ** Concentration giving a 50% inhibition on cell proliferation
Procedure: as §1

[2] = test system: uterus, ovary and breast tumour cell lines; experiment: Antiproliferative activity on uterus, ovary and breast tumour cell lines; type: cell-based; settings: result in words
Procedure: as §1

[3] = target: estrogen receptors of type II; settings: read-out: apparent affinity dissociation constant KD for estradiol; type II sites, rat uterus; cited from earlier work
human leukemia cells = settings: result in words; cited from earlier work
[4] = OVCA433, OVCA 433 cancer cells in vitro, 72 hours test

Row | SMILES | IC50 [1] [µM] | affinity to estrogen receptors of type II [1] | IC50 (OVCA 433 cancer cells; [4]) [µM] | antiproliferative activity on uterus, ovary and breast tumour cell lines [2] | IC50 (OVCA 433 cancer cells; OVCA433, 72 h) [µM] | Kd [3] [µM] | inhibiting activity on the proliferation of human leukemia cells (human leukemia cells)
1 | CC(C)=CCc1c(O)ccc(C(=O)/C=C/c2ccccc2)c1O [Chalcone S1, Isocordoin] | 1.2 | remarkable affinity | 1.2 | marked antiproliferative activity | – | – | –
2 | COc1ccc(C(=O)/C=C/c2ccc(O)cc2)c(O)c1CC=C(C)C [Chalcone S2, 4-hydroxyderricin] | 10.6 | remarkable affinity | 17 | marked antiproliferative activity | – | – | –
3 | COc1ccc(C(=O)/C=C/c2ccccc2O)c(O)c1CC=C(C)C [Chalcone S3, 2-hydroxyderricin] | 18 | remarkable affinity | 4.2 | marked antiproliferative activity | – | – | –
4 | COc1ccc(C(=O)/C=C/c2cccc(O)c2)c(O)c1CC=C(C)C [Chalcone S4, 3-hydroxyderricin] | 12.1 | remarkable affinity | 5 | marked antiproliferative activity | – | – | –
5 | O=C(/C=C/c1ccccc1)c1ccc(O)cc1O [Chalcone S5, 2',4'-dihydroxychalcone] | 0.6 | remarkable affinity | 2.5 | marked antiproliferative activity | – | – | –
6 | O=C(/C=C/c1ccc(O)cc1)c1ccc(O)cc1O [Chalcone S6, 4,2',4'-trihydroxychalcone] | 3.2 | remarkable affinity | – | marked antiproliferative activity | 5 | – | –
7 | CC(C)=CCOc1ccc(C(=O)/C=C/c2ccccc2)c(O)c1 [Chalcone S7, Cordoin] | 4.2 | remarkable affinity | 6 | marked antiproliferative activity | – | – | –
8 | CC(C)=CCOc1ccc(C(=O)/C=C/c2ccc(O)cc2)c(O)c1 [Chalcone S8, 4-hydroxycordoin, reference compound] | – | no affinity | – | – | – | – | –
9 | CC(C)=CCOc1ccc(C(=O)CCc2ccccc2)c(O)c1 [Chalcone S9, Dihydrocordoin, reference compound] | – | no affinity | – | – | – | – | –
10 | C[C@]12CC[C@@H]3c4ccc(O)cc4CC[C@H]3[C@@H]1CC[C@@H]2O [estradiol] | – | – | – | – | – | 0.01 to 0.02 | –
11 | O=c1c(O)c(-c2ccc(O)c(O)c2)oc2cc(O)cc(O)c12 [quercetin] | – | – | – | – | – | – | some inhibiting activity
